Test results as given in paper PMC11929900 (Communications Chemistry, 2025).

Target: h-cGAS (Homo sapiens, UniProt Q8N884)
Test: cGAS Kinase-Glo inhibition biochemical assay

h-cGAS, sequence (Q8N884 whole entry): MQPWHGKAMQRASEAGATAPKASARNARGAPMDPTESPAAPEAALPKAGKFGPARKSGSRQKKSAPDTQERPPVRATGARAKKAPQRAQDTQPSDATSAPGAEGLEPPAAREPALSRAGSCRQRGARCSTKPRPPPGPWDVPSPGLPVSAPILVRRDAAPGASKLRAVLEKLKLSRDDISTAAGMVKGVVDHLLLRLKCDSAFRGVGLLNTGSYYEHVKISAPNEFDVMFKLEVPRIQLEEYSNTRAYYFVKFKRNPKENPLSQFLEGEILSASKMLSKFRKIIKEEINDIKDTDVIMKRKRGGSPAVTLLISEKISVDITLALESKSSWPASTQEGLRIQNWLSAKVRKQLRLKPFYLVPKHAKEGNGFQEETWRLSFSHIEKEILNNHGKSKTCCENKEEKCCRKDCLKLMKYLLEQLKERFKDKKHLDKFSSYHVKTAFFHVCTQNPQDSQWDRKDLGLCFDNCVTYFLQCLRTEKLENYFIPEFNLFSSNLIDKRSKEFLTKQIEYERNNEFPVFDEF

## COCC(=O)N1CCc2[nH]c3c(Cl)c(Cl)ccc3c2C1(C)C [Compound 3, 1-(6,7-dichloro-1,1-dimethyl-1,3,4,5-tetrahydro-2H-pyrido[4,3-b]indol-2-yl)-2-methoxyethan-1-one]
  IC50: > 10 µM
